Results: ChEMBL document CHEMBL1268905, “3D-QSAR and docking studies on pyrazolo[4,3-h]qinazoline-3-carboxamides as cyclin-dependent kinase 2 (CDK2) inhibitors” (Bioorg Med Chem Lett, 2010)

Molecular target: Cyclin-dependent kinase 2/cyclin A (Homo sapiens, UniProt P24941)
Test: Inhibition of CDK2/cyclin A
Assay type: protein-complex assay

Compound | IC50 [nM]
COc1ccc(-n2cc(C(N)=O)c3c2-c2nc(NC4CCCC4)ncc2CC3)cc1 | 6
CN(O)C(=O)c1cn(C)c2c1CCc1cnc(NC3CCCC3)nc1-2 | 175
CN1CCN(c2ccc(CNc3ncc4c(n3)-c3c(c(C(N)=O)cn3C)CC4)cc2)CC1 | 17
NC(=O)c1cn(-c2ccccn2)c2c1CCc1cnc(NC3CCCC3)nc1-2 | 52
Cn1cc(C(N)=O)c2c1-c1nc(NC3CCN(C(=O)c4ccccc4)CC3)ncc1CC2 | 3
CNC(=O)c1cn(C)c2c1CCc1cnc(NC3CCN(C(C)=O)CC3)nc1-2 | 32
CC(=O)N1CCC(n2cc(C(N)=O)c3c2-c2nc(NC4CCCC4)ncc2CC3)CC1 | 7
CCOC(=O)N1CCC(Nc2ncc3c(n2)-c2c(c(C(=O)NC)cn2C)CC3)CC1 | 57.9
CNC(=O)c1cn(C)c2c1CCc1cnc(NC3CCN(S(=O)(=O)c4ccccc4)CC3)nc1-2 | 5
Cn1cc(C(N)=O)c2c1-c1nc(NCCN3CCOCC3)ncc1CC2 | 209
COc1cccc(CNc2ncc3c(n2)-c2c(c(C(N)=O)cn2C)CC3)c1 | 65.9
Cn1cc(C(N)=O)c2c1-c1nc(NCc3ccccn3)ncc1CC2 | 86.9
CC(CN(C)C)NC(=O)c1cn(C)c2c1CCc1cnc(NC3CCCC3)nc1-2 (centres undefined) | 1760
Cn1cc(C(N)=O)c2c1-c1nc(NCc3ccncc3)ncc1CC2 | 21
Cn1cc(C(=O)NCc2ccccc2)c2c1-c1nc(Nc3ccccc3)ncc1CC2 | 1050
CCN1CCC(Nc2ncc3c(n2)-c2c(c(C(N)=O)cn2C)CC3)CC1 | 149
CC(=O)Nc1ccc(CNc2ncc3c(n2)-c2c(c(C(N)=O)cn2C)CC3)cc1 | 13
Cn1cc(C(N)=O)c2c1-c1nc(NC3CCN(S(C)(=O)=O)CC3)ncc1CC2 | 1
Cn1cc(C(=O)N(O)Cc2ccccc2)c2c1-c1nc(NC3CCCC3)ncc1CC2 | 1370
NC(=O)c1cn(CCO)c2c1CCc1cnc(NC3CCCC3)nc1-2 | 8

Compound | IC50 [nM]
CNC(=O)c1cn(C2CCN(C)CC2)c2c1CCc1cnc(NC3CCCC3)nc1-2 | 59
COc1ccc(CNc2ncc3c(n2)-c2c(c(C(N)=O)cn2C)CC3)cc1 | 57.9
CNC(=O)c1cn(C)c2c1CCc1cnc(NC3CCCC3)nc1-2 | 97.1
CNC(=O)c1cn(C)c2c1CCc1cnc(NC3CCN(C(=O)N4CCN(C)CC4)CC3)nc1-2 | 1120
NC(=O)c1cn(-c2ccccc2)c2c1CCc1cnc(NC3CCCC3)nc1-2 | 20
CN1CCN(c2cccc(CNc3ncc4c(n3)-c3c(c(C(N)=O)cn3C)CC4)c2)CC1 | 104
Cn1cc(C(N)=O)c2c1-c1nc(NCc3ccc(S(C)(=O)=O)cc3)ncc1CC2 | 38
NC(=O)c1cn(CC(F)(F)F)c2c1CCc1cnc(NC3CCCC3)nc1-2 | 5
CCOC(=O)N1CCC(Nc2ncc3c(n2)-c2c(c(C(N)=O)cn2C)CC3)CC1 | 1
Cn1cc(C(N)=O)c2c1-c1nc(NCCO)ncc1CC2 | 19
CN1CCC(n2cc(C(N)=O)c3c2-c2nc(NC4CCCC4)ncc2CC3)CC1 | 6
Cn1cc(C(N)=O)c2c1-c1nc(NCc3ccccc3)ncc1CC2 | 51.1
CN1CCN(C(=O)N2CCC(Nc3ncc4c(n3)-c3c(c(C(N)=O)cn3C)CC4)CC2)CC1 | 12
Cn1cc(C(N)=O)c2c1-c1nc(NCc3cccnc3)ncc1CC2 | 21
NC(=O)c1cn(Cc2ccccc2)c2c1CCc1cnc(NC3CCCC3)nc1-2 | 23
Cn1cc(C(N)=O)c2c1-c1nc(NCc3ccc(Br)cc3)ncc1CC2 | 80.9
Cn1cc(C(=O)NCCO)c2c1-c1nc(Nc3ccccc3)ncc1CC2 | 74
NC(=O)c1cn(-c2ccc(S(N)(=O)=O)cc2)c2c1CCc1cnc(NC3CCCC3)nc1-2 | 5
Cn1cc(C(N)=O)c2c1-c1nc(NC3CCN(S(=O)(=O)c4ccccc4)CC3)ncc1CC2 | 4

Second part, the molecule after the results:

IC50 [nM] | Compound
83 | CNC(=O)c1cn(C)c2c1C(C)(C)Cc1cnc(Nc3cccc(CN(C)C)c3)nc1-2
29 | CNC(=O)c1cn(C)c2c1C(C)(C)Cc1cnc(Nc3ccc(OC4CCN(C)CC4)cc3)nc1-2
220 | CNC(=O)c1cn(C)c2c1C(C)(C)Cc1cnc(Nc3cccc(N(C)C)c3)nc1-2
36 | CNC(=O)c1cn(C)c2c1C(C)(C)Cc1cnc(Nc3ccc(CN4CCOCC4)cc3)nc1-2
137 | CNC(=O)c1cn(C)c2c1C(C)(C)Cc1cnc(Nc3ccc(N4CCOCC4)cc3)nc1-2
59 | CNC(=O)c1cn(C)c2c1C(C)(C)Cc1cnc(Nc3cccc(CN4CCN(C)CC4)c3)nc1-2
17 | CN1CCN(c2ccc(Nc3ncc4c(n3)-c3c(c(C(N)=O)cn3C)C(C)(C)C4)cc2)CC1
1 | CN1CCN(c2cccc(Nc3ncc4c(n3)-c3c(c(C(N)=O)cn3C)CC4)c2)CC1
160 | CNC(=O)c1cn(C)c2c1C(C)(C)Cc1cnc(Nc3cccc(CN4CCOCC4)c3)nc1-2
31 | CNC(=O)c1cn(C)c2c1C(C)(C)Cc1cnc(Nc3cccc(N4CCN(C)CC4)c3)nc1-2
4580 | CNC(=O)c1cn(C)c2c1CCc1cnc(NC3CCN(C)CC3)nc1-2
35 | CNC(=O)c1cn(C)c2c1C(C)(C)Cc1cnc(Nc3ccc(CN(C)C)cc3)nc1-2
47 | CNC(=O)c1cn(C)c2c1C(C)(C)Cc1cnc(Nc3cccc(OC4CCN(C)CC4)c3)nc1-2
24 | Cn1cc(C(N)=O)c2c1-c1nc(Nc3ccccc3)ncc1CC2(C)C
2 | CN1CCN(c2ccc(Nc3ncc4c(n3)-c3c(c(C(N)=O)cn3C)CC4)cc2)CC1
59 | CNC(=O)c1cn(C)c2c1C(C)(C)Cc1cnc(Nc3ccc(N(C)C)cc3)nc1-2
25 | CNC(=O)c1cn(C)c2c1CCc1cnc(NC3CCN(C(=O)c4ccccc4)CC3)nc1-2
55 | CNC(=O)c1cn(C)c2c1C(C)(C)Cc1cnc(Nc3ccc(CN4CCN(C)CC4)cc3)nc1-2
14 | Cn1cc(C(N)=O)c2c1-c1nc(Nc3ccc(N4CCOCC4)cc3)ncc1CC2
248 | CNC(=O)c1cn(C)c2c1C(C)(C)Cc1cnc(Nc3cccc(N4CCOCC4)c3)nc1-2
